The target of one series is T1, serotonin transporter (Homo sapiens, UniProt P31645).
T1 construct: expressed in transfected cells; host or cells: HEK-293
Put plainly: Serotonin reuptake inhibition in transporter-transfected HEK-293 cells ([3H]-5-HT). It counts as cell-based. Conditions: for IC50: concentration at which Ratio % is 50%, 6 concentrations 1 nM to 1 μM, read-out: Triple reuptake inhibition (IC50, μM) SERT; for Triple reuptake inhibition (Ratio %) SERT: compound 1 μM, [3H]-5-HT, relative to control without compound (100%), lower = more inhibition.

Series [1] has as its system male ICR mice. Put plainly: Evaluation on causing sleep disorder, pentobarbital sodium-induced sleep in mice. It counts as in vivo. The following applies: then pentobarbital sodium 42 mg/kg i.p.; for sleep onset time: vehicle about 225 seconds; for sleep duration: vehicle about 2100 seconds. How it is done: In order to evaluate the causing of sleep disorder or not as the side effect of the compound of Example 35, Example 66 according to the present invention or Comparative Example 1, an experiment was performed as follows, and the results are shown in FIG. 2. Pentobarbital sodium is a drug inducing sleep, and by observing the behavior of sleep-induced animals using the drug, the causing of sleep disorder or not can be evaluated. In addition, caffeine is well-known as a drug causing sleep disorder, and diazepam is well-known as a sleeping pill having sleep retention effect.
As experimental animals, male ICR mice of 3 weeks old were prepared and, 8 mice per group were prepared. A vehicle taking only water, groups intraperitoneally administered once a day for 5 days with 10 mg/kg of caffeine, 2 mg/kg of diazepam, 10 mg/kg of Comparative Example 1, and 10 mg/kg of Example 35 and 10 mg/kg of Example 66, were prepared. […], 42 mg/kg of pentobarbital sodium was intraperitoneally administered to the mice of each group to Induce sleep.
After treatment with pentobarbital sodium, if a mouse was turned upside down showing Its belly, it was considered sleep, and if a mouse changed posture while showing its back, it was considered to wake up completely. Sleep onset time and sleep duration were confirmed.

A further series deals with T2, dopamine transporter (Homo sapiens, UniProt Q01959).
T2 construct: expressed in transfected cells; host or cells: HEK-293
Description: Dopamine reuptake inhibition in transporter-transfected HEK-293 cells ([3H]-DA). Conditions: for IC50: concentration at which Ratio % is 50%, 6 concentrations 1 nM to 1 μM, read-out: Triple reuptake inhibition (IC50, μM) DAT; for Triple reuptake inhibition (Ratio %) DAT: compound 1 μM, 20-30 nM [3H]-DA, relative to control without compound (100%), lower = more inhibition. Format: cell-based. The procedure, abridged:
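HEK-293 cells transfected with human DAT cDNA; compound preincubated 15 min at 37 °C in uptake buffer, then buffer containing 20-30 nM [3H]-DA added for 5 min at 37 °C. After ice-cold washes and SDS lysis, radioactivity expressed as % of untreated control; IC50 from six concentrations (1 nM–1 μM).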

The target of series [2] is T3, norepinephrine transporter (Homo sapiens, UniProt P23975).
T3 construct: expressed in transfected cells; host or cells: HEK-293
Put plainly: Norepinephrine reuptake inhibition in transporter-transfected HEK-293 cells ([3H]-NE). It counts as cell-based. Conditions: for IC50: concentration at which Ratio % is 50%, 6 concentrations 1 nM to 1 μM, read-out: Triple reuptake inhibition (IC50, μM) NET; for Triple reuptake inhibition (Ratio %) NET: compound 1 μM, [3H]-NE, relative to control without compound (100%), lower = more inhibition.

Series [3] relates to male ICR mice. Description: Hyperactivity inhibitory effect, open field test (EthoVision) in MK801-treated mice. It counts as in vivo. Conditions: for distance moved: vehicle about 7000 cm; for movement duration: vehicle about 880 s. Here is the method: In order to evaluate the hyperactivity inhibitory effect of the compounds of Example 35 and Example 66 according to the present invention or Comparative Example 1, an experiment was performed as follows, and the results are shown in FIG. 1. An open field test is an experimental method utilized for searching for excess and decline in motor function, calmness, excitement, avoidance degree and toxicity.
The observation of the hyperactivity and behavior analysis of animals were conducted using an EthoVisiorn System (Noldus IT b.v., Netherlands) that is a type of an open field test. The animals used for the experiment were male ICR mice of 4 weeks old. To induce hyperactivity, animal models intraperitoneally administered with 0.15 mg/kg of MK801 (drug name: dizocilpine) were used, and the compounds of Example 35, example 66 or Comparative Example 1 was intraperitoneally administered by 5 mg/kg, 30 minutes ago the administration of MK801. Male ICP mice administered with 10% DMSO and 10% Tween-80 as the solvents dissolving a drug were considered a vehicle, and male ICR mice administered with MK801 […] with the Example Compound or Comparative Compound were considered a positive control. After that, in the center of a test box (40×40×30 cm) manufactured using black acryl, the mice under test were put and allowed to fit for 15 minutes, and behavior patterns were observed, recorded and analyzed for 15 minutes. Comparative analysis was conducted by measuring distance moved and movement duration.

Where [4] appears, read: 10 mg/kg intraperitoneally once a day for 5 days.
Where [5] appears, read: 5 mg/kg intraperitoneally 30 minutes before MK801 0.15 mg/kg i.p.
Where [6] appears, read: 5 mg/kg intraperitoneally 30 minutes before MK801 0.15 mg/kg i.p., observed 15 minutes, MK801 only about 14000 cm.
Setting [7] is: 5 mg/kg intraperitoneally 30 minutes before MK801 0.15 mg/kg i.p., MK801 only about 1070 s.
Where [8] appears, read: positive control treated with only MK801 0.15 mg/kg i.p.
[9] abbreviates: 2 mg/kg intraperitoneally once a day for 5 days.

This is an account of results in patent US20240018119A1, “CARBOXAMIDE DERIVATIVE AND PHARMACEUTICAL COMPOSITION COMPRISING SAME AS ACTIVE INGREDIENT FOR PREVENTING OR TREATING MENTAL ILLNESS” (DAEGU-GYEONGBUK MEDICAL INNOVATION FOUNDATION, priority 2020, published 2024).

The term IC50 denotes the concentration needed to halve the response being measured.

T2 sequence (Q01959 whole entry): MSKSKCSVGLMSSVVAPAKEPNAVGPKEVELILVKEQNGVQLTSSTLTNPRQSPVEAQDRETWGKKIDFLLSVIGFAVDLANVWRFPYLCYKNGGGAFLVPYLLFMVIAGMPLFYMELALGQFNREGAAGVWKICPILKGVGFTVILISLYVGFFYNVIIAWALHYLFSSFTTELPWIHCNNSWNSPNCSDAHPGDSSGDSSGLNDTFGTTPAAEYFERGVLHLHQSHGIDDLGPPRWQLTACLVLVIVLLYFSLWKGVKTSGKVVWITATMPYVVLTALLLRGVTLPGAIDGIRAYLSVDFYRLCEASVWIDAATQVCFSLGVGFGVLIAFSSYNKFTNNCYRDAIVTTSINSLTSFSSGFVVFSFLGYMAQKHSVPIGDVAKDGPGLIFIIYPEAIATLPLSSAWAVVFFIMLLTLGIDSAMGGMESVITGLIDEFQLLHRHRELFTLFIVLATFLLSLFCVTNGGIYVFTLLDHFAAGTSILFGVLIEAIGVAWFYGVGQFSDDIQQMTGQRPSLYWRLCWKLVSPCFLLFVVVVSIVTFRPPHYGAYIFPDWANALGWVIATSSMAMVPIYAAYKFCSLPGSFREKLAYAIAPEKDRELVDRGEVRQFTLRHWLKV
T1 sequence (P31645 whole entry): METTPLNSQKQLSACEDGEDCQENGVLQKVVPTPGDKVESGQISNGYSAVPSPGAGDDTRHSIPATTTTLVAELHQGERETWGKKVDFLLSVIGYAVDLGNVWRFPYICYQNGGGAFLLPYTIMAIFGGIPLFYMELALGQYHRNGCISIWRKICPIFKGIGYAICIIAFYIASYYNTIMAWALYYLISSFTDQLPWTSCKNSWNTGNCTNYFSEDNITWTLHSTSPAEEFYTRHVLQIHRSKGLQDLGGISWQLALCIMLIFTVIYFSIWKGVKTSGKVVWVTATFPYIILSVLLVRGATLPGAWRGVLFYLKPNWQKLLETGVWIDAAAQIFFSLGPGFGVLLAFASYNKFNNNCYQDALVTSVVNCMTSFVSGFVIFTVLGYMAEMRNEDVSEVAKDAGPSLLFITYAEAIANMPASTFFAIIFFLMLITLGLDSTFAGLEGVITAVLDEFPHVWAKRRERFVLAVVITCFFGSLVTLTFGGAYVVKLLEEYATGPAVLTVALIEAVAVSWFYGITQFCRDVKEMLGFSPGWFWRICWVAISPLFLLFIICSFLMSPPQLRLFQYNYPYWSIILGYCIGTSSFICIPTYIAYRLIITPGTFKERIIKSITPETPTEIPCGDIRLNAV
T3 sequence (P23975 whole entry, species assumed): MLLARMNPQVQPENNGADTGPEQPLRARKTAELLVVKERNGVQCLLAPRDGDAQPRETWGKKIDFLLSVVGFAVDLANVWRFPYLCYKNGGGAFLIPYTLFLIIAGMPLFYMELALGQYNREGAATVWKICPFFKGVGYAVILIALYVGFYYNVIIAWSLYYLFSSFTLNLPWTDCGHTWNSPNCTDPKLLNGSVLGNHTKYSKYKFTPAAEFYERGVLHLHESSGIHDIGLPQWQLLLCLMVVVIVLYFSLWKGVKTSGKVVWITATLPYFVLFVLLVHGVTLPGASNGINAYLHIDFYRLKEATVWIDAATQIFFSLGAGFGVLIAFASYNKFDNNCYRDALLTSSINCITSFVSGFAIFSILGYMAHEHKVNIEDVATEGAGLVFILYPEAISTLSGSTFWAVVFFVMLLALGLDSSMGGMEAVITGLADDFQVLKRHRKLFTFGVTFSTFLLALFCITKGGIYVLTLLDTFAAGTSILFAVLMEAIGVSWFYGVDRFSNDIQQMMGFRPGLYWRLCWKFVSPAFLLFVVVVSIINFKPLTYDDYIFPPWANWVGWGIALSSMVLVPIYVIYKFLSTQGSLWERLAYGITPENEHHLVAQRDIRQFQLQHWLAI

For `O=C(NCCN1CCC(Cc2ccccc2)CC1)c1cc2ccccc2[nH]1` [Comparative Example 1, N-(2-(4-benzylpiperidin-1-yl)ethyl)-1H-indol-2-carboxamide, reference compound], the IC50 is 5.35 µM at serotonin transporter, 4.18 µM on dopamine transporter and 0.524 µM in series [2]. Further, the “sleep disorder as side effect” value with male ICR mice [1] (setting [4]) was “induced sleep disorder”. In addition, the sleep onset time entry with male ICR mice [1] (setting [4]) was “about 300 seconds”. Moreover, the sleep duration entry in the series on male ICR mice [1] (setting [4]) is “about 1100 seconds”. Also, the “hyperactivity of the mice induced with MK801” value (“hyperactivity” for short) in the series with male ICR mice [3] (setting [5]) is on record as “not inhibited”. Also, in the series with male ICR mice [3] (setting [6]), the distance moved result is listed as “about 13400 cm”. Besides, in the series with male ICR mice [3] (setting [7]), the movement duration entry was “about 1100 seconds”.
`COc1cc2cc(C(=O)NCCN3CCC(Cc4ccccc4)CC3)[nH]c2cc1OC` [Example 35, N-(2-(4-benzylpiperidin-1-yl)ethyl)-5,6-dimethoxy-1H-indol-2-carboxamide]: at serotonin transporter, the “Triple reuptake inhibition (Ratio %) SERT” value worked out at 36.24% and the IC50 was found to be 0.415 µM. Moreover, on dopamine transporter, the “Triple reuptake inhibition (Ratio %) DAT” value came out at 7.77% and the IC50 turned out to be 0.248 µM. In series [2], the “Triple reuptake inhibition (Ratio %) NET” value amounted to 16.10% and the half-maximal inhibitory concentration (IC50) came to 0.386 µM. In the series on male ICR mice [3] (setting [5]), the “hyperactivity” value is “significantly inhibited”. The distance moved entry in the series with male ICR mice [3] (setting [6]) was “about 10000 cm”. Besides, in the series with male ICR mice [3] (setting [7]), the movement duration result is “about 950 seconds”.
With `O=C(NCCN1CCC(Cc2ccccc2)CC1)c1cc2cc(O)ccc2[nH]1` [Example 66, N-(2-(4-benzylpiperidin-1-yl)ethyl)-5-hydroxy-1H-Indol-2-carboxamide], at serotonin transporter, the “Triple reuptake inhibition (Ratio %) SERT” value was determined as 38.79% and the IC50 stood at 0.265 µM. Further, on dopamine transporter, the “Triple reuptake inhibition (Ratio %) DAT” value was 8.78% and the 50% inhibitory concentration (IC50) was determined as 0.036 µM. In addition, in series [2], the “Triple reuptake inhibition (Ratio %) NET” value is 21.59% and the IC50 is 0.167 µM. The “hyperactivity” value with male ICR mice [3] (setting [5]) is reported as “significantly inhibited”. In addition, in the series with male ICR mice [3] (setting [6]), the distance moved result is “about 8600 cm”. Further, in the series with male ICR mice [3] (setting [7]), the movement duration entry was “about 880 seconds”.
Take `C[C@]12N[C@H](Cc3ccccc31)c1ccccc12` [MK801, reference compound]: in the series with male ICR mice [3] (setting [8]), the movement duration entry was “about 1070 seconds” and the distance moved entry was “about 14000 cm”.
`CN1C(=O)CN=C(c2ccccc2)c2cc(Cl)ccc21` [diazepam]: in the series with male ICR mice [1] (setting [9]), the sleep onset time entry is “about 170 seconds” and the sleep duration entry is “about 2900 seconds”.
